Assay results from publication PMC5050400 (Current Neuropharmacology, 2016).
Numbering of substitutions follows the chain as printed. Several values for one entry are separate records, joined by “and”; a condition that tells them apart may be missing. Identical values can stand only once. Like-named read-outs stand apart in the source and are kept apart here.

Legend:
[1] = system: β3(Y143W) receptor; settings: β3(Y143W) homomeric receptor compared with wild-type; cited from earlier work
[2] = target: T1, α1β3(M286W+Y143W) GABAA receptor (Homo sapiens, UniProt P14867+P28472, M311W/Y168W); assay: Two-electrode voltage clamp activation of α1β3; format: cell-based; settings: for Po,max^est / nH / d: α1β3(M286W+Y143W); for d: KO/KC, MWC fit
T1 sequence (P28472 26-473 Y168W/M311W): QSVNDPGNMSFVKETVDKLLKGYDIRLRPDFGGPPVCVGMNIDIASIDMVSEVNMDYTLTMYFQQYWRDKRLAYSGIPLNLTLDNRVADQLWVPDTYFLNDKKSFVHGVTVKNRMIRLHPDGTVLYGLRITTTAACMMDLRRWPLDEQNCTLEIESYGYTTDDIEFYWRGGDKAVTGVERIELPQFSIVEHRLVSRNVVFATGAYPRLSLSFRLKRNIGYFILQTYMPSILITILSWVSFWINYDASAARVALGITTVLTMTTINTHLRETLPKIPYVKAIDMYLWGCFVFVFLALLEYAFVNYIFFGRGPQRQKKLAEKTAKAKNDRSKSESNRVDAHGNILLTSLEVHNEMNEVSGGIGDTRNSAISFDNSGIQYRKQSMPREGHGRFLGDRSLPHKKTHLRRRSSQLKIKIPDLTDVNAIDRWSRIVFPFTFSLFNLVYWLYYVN
T1 sequence (P14867 28-456): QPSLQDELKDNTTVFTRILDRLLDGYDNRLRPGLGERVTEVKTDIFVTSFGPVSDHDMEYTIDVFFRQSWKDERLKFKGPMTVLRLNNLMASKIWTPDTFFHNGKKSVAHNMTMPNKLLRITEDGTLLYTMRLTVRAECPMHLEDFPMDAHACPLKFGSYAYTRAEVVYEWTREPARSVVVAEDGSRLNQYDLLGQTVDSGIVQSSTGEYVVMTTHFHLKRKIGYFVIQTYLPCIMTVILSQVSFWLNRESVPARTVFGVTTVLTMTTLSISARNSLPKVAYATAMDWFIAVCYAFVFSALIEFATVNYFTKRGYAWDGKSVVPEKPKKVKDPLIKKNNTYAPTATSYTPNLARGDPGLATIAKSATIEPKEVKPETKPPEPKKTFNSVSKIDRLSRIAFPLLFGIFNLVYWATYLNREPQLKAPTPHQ

[3] = target: T2, α1β3 GABAA receptor (Homo sapiens, UniProt P14867+P28472); format: cell-based; settings: for d / Po,max^est / nH: wild-type α1β3; for d: KO/KC, gating efficacy, MWC fit, n = 5 for propofol, 2 for GABA; for Po,max^est: estimated maximal open probability at saturating agonist; for nH: slope of concentration-response curve
T2 sequence (P28472 26-473): T1 sequence (P28472 26-473 Y168W/M311W) with W143Y, W286M
T2 sequence (P14867 28-456): T1 sequence (P14867 28-456)

[4] = target: T3, α1β3(M286W+F221W) GABAA receptor (Homo sapiens, UniProt P14867+P28472, F246W/M311W); assay: Two-electrode voltage clamp activation of α1β3; format: cell-based; settings: for Po,max^est / nH / d: α1β3(M286W+F221W); for d: KO/KC, MWC fit
T3 sequence (P28472 26-473 F246W/M311W): T1 sequence (P28472 26-473 Y168W/M311W) with W143Y, F221W
T3 sequence (P14867 28-456): T1 sequence (P14867 28-456)

[5] = target: T4, α1β3(M286W) GABAA receptor (Homo sapiens, UniProt P14867+P28472, M311W); assay: Two-electrode voltage clamp activation of α1β3; format: cell-based; settings: for Po,max^est / nH / d: α1β3(M286W); for d: KO/KC, MWC fit
T4 sequence (P28472 26-473 M311W): T1 sequence (P28472 26-473 Y168W/M311W) with W143Y
T4 sequence (P14867 28-456): T1 sequence (P14867 28-456)

[6] = target: T5, α1β3(Y143W) GABAA receptor (Homo sapiens, UniProt P14867+P28472, Y168W); assay: Two-electrode voltage clamp activation of α1β3; format: cell-based; settings: for Po,max^est / nH / d: α1β3(Y143W); for d: KO/KC, MWC fit
T5 sequence (P28472 26-473 Y168W): T1 sequence (P28472 26-473 Y168W/M311W) with W286M
T5 sequence (P14867 28-456): T1 sequence (P14867 28-456)

[7] = target: T6, α1β3(M286W+Q224W) GABAA receptor (Homo sapiens, UniProt P14867+P28472, M311W/Q249W); assay: cell-based
T6 sequence (P28472 26-473 Q249W/M311W): T1 sequence (P28472 26-473 Y168W/M311W) with W143Y, Q224W
T6 sequence (P14867 28-456): T1 sequence (P14867 28-456)

[8] = target: T7, α1β3(Q224W) GABAA receptor (Homo sapiens, UniProt P14867+P28472, Q249W); assay: Two-electrode voltage clamp activation of α1β3; format: cell-based; settings: for Po,max^est / nH / d: α1β3(Q224W); for d: KO/KC, MWC fit
T7 sequence (P28472 26-473 Q249W): T1 sequence (P28472 26-473 Y168W/M311W) with W143Y, Q224W, W286M
T7 sequence (P14867 28-456): T1 sequence (P14867 28-456)

[9] = target: T8, α1β3(F221W) GABAA receptor (Homo sapiens, UniProt P14867+P28472, F246W); assay: Two-electrode voltage clamp activation of α1β3; format: cell-based; settings: for Po,max^est / nH / d: α1β3(F221W); for d: KO/KC, MWC fit
T8 sequence (P28472 26-473 F246W): T1 sequence (P28472 26-473 Y168W/M311W) with W143Y, F221W, W286M
T8 sequence (P14867 28-456): T1 sequence (P14867 28-456)

[10] = system: α1β2γ2L GABAA receptors; settings: compared with propofol; cited from earlier work

Compound	activation of the mutant receptor [1]	Po,max^est [2]	nH [2]	d [2]	d [3]	Po,max^est [3]	nH [3]	Po,max^est [4]	nH [4]	d [4]	Po,max^est [5]	nH [5]	d [5]	Po,max^est [6]	nH [6]	d [6]	Po,max^est [8]	nH [8]	d [8]	Po,max^est [9]	other results
Cc1cccc(C)c1O [2,6-dimethylphenol]	unchanged	–	–	–	–	–	–	–	–	–	–	–	–	–	–	–	–	–	–	–	–
CC(C)c1ccccc1O [2-isopropylphenol]	unchanged	–	–	–	–	–	–	–	–	–	–	–	–	–	–	–	–	–	–	–	–
NCCCC(=O)O [GABA, γ-aminobutyric acid]	–	0.96±0.09	0.8±0.1	0.08±0.05	0.02±0.001	0.65±0.04	1.5±0.1	1	1.1±0.1	0.07±0.05	0.94±0.01	1.8±0.2	0.005±0.002	1	1.7±0.1	0.02±0.001	0.24±0.03	1.0±0.1	0.06±0.01	1	Po,max^est ([7]; α1β3(M286W+Q224W)): 0.87±0.02; nH ([7]; α1β3(M286W+Q224W)): 1.1±0.1; d ([7]; α1β3(M286W+Q224W), KO/KC, MWC fit): 0.04±0.004; nH [9]: 1.5±0.1; d [9]: 0.03±0.02
CC(C)c1cccc(C(C)C)c1O [Propofol, 2,6-diisopropylphenol]	–	0.64±0.02	1.5±0.2	0.93±0.01	0.24±0.01	0.50±0.02	1.7±0.3	0.60±0.04	1.1±0.1	0.84±0.01	0.33±0.04	2.8±0.3	0.27±0.01	1	1.6±0.1	0.27±0.03	1	2.9±0.6	0.04±0.05	1	EC50 [2]: 1.6 ± 0.2 µM; Kd [2]: 1.4 ± 0.3 µM; EC50 ([3]; EC50, wild-type α1β3, direct activation, mean ± S.E.M., at least 4 cells): 13 µM and 12.5 µM; EC50 [4]: 6.6 ± 0.8 µM; Kd [4]: 5.7 ± 1.6 µM; EC50 [5]: 14 ± 0.7 µM; Kd [5]: 6 ± 1.4 µM; EC50 [6]: 12.8 ± 2.9 µM; Kd [6]: 23 ± 6 µM; EC50 [7]: 69 ± 9 µM; Kd [7]: 61 ± 14 µM; Po,max^est [7]: 0.11±0.01; d [7]: 0.58±0.01; nH [7]: 1.9±0.1; EC50 [8]: 50 ± 2 µM; Kd [8]: 336 ± 435 µM; EC50 [9]: 5 ± 0.5 µM; Kd [9]: 13.1 ± 1.5 µM; nH [9]: 1.9±0.3; d [9]: 0.23±0.01
CC(C)c1ccc(C2(C(F)(F)F)N=N2)cc1O [meta-azipropofol, 2-isopropyl-5-[3-(trifluoromethyl)-3H-diazirin-3-yl]phenol]	–	–	–	–	–	–	–	–	–	–	–	–	–	–	–	–	–	–	–	–	degree of potentiation [10]: somewhat smaller degree of potentiation
